Results as given in PubChem BioAssay (NCI).
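All cell lines were grown in 96-well plates and treated with compound for 48 hours. GI50: concentration for 50% inhibition of growth. TGI: concentration producing complete growth inhibition.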

Columns and labels:
Assay in all cases: NCI tumour cell line growth inhibition, 48 h
UO-31 renal = test system: UO-31 renal
NCI-H226 lung = test system: NCI-H226 lung
SR leukemia = test system: SR leukemia
PC-3 prostate = test system: PC-3 prostate
MOLT-4 leukemia = test system: MOLT-4 leukemia
SNB-75 CNS = test system: SNB-75 CNS
SK-MEL-28 melanoma = test system: SK-MEL-28 melanoma
HCT-15 colon = test system: HCT-15 colon
K-562 leukemia = test system: K-562 leukemia
LOX IMVI melanoma = test system: LOX IMVI melanoma
IGROV1 ovarian = test system: IGROV1 ovarian
OVCAR-5 ovarian = test system: OVCAR-5 ovarian
A498 renal = test system: A498 renal
CCRF-CEM leukemia = test system: CCRF-CEM leukemia
MDA-MB-231 breast = test system: MDA-MB-231 breast
HS 578T breast = test system: HS 578T breast
HT29 colon = test system: HT29 colon
SW-620 colon = test system: SW-620 colon
MALME-3M melanoma = test system: MALME-3M melanoma
OVCAR-4 ovarian = test system: OVCAR-4 ovarian
OVCAR-3 ovarian = test system: OVCAR-3 ovarian
NCI-H460 lung = test system: NCI-H460 lung
MDA-MB-435 = test system: MDA-MB-435
A549 NSCLC = test system: A549 NSCLC
HCT-116 colon = test system: HCT-116 colon
NCI/ADR-RES ovarian = test system: NCI/ADR-RES ovarian
RXF 393 renal = test system: RXF 393 renal
BT-549 breast = test system: BT-549 breast
NCI-H522 lung = test system: NCI-H522 lung
SK-MEL-5 melanoma = test system: SK-MEL-5 melanoma
SK-MEL-2 melanoma = test system: SK-MEL-2 melanoma
U251 CNS = test system: U251 CNS
COLO 205 colon = test system: COLO 205 colon
CAKI-1 renal = test system: CAKI-1 renal
SF-539 CNS = test system: SF-539 CNS
M14 melanoma = test system: M14 melanoma
MCF7 breast = test system: MCF7 breast
ACHN renal = test system: ACHN renal
TK-10 renal = test system: TK-10 renal
SNB-19 CNS = test system: SNB-19 CNS
HL-60(TB) leukemia = test system: HL-60(TB) leukemia
OVCAR-8 ovarian = test system: OVCAR-8 ovarian
SF-295 CNS = test system: SF-295 CNS
SF-268 CNS = test system: SF-268 CNS
786-0 renal = test system: 786-0 renal
KM12 colon = test system: KM12 colon
HCC-2998 colon = test system: HCC-2998 colon
UACC-62 melanoma = test system: UACC-62 melanoma
RPMI-8226 leukemia = test system: RPMI-8226 leukemia
DU-145 prostate = test system: DU-145 prostate
SK-OV-3 ovarian = test system: SK-OV-3 ovarian
EKVX NSCLC = test system: EKVX NSCLC
UACC-257 melanoma = test system: UACC-257 melanoma
SN12C renal = test system: SN12C renal
HOP-62 NSCLC = test system: HOP-62 NSCLC
NCI-H23 lung = test system: NCI-H23 lung
T-47D breast = test system: T-47D breast
HOP-92 NSCLC = test system: HOP-92 NSCLC

## Nc1nc(=S)c2ncn(C3OC(COP(=O)(O)O)C(O)C3O)c2[nH]1 (centres undefined)
UO-31 renal
  GI50: 1980 nM
  TGI: > 100 µM
NCI-H226 lung
  GI50: 9.9 µM
  TGI: > 100 µM
SR leukemia
  GI50: 268 nM
  TGI: > 100 µM
PC-3 prostate
  GI50: 3.44 µM
  TGI: > 100 µM
MOLT-4 leukemia
  GI50: 354 nM
  TGI: > 100 µM
SNB-75 CNS
  GI50: 960 nM
  TGI: > 100 µM
SK-MEL-28 melanoma
  GI50: 6.57 µM
  TGI: > 100 µM
HCT-15 colon
  GI50: 1720 nM
  TGI: > 100 µM
K-562 leukemia
  GI50: 965 nM
  TGI: > 100 µM
LOX IMVI melanoma
  GI50: 322 nM
  TGI: 14.2 µM
IGROV1 ovarian
  GI50: 5.23 µM
  TGI: > 100 µM
OVCAR-5 ovarian
  GI50: 752 nM
  TGI: > 100 µM
A498 renal
  GI50: 631 nM
  TGI: 9.24 µM
CCRF-CEM leukemia
  GI50: 406 nM
  TGI: > 100 µM
MDA-MB-231 breast
  GI50: 717 nM
  TGI: > 100 µM
HS 578T breast
  GI50: 6.36 µM
  TGI: > 100 µM
HT29 colon
  GI50: 1200 nM
  TGI: > 100 µM
SW-620 colon
  GI50: 3.59 µM
  TGI: > 100 µM
MALME-3M melanoma
  GI50: 1810 nM
  TGI: 75 µM
OVCAR-4 ovarian
  GI50: 2190 nM
  TGI: > 100 µM
OVCAR-3 ovarian
  GI50: 3.2 µM
  TGI: > 100 µM
NCI-H460 lung
  GI50: 562 nM
  TGI: 10.9 µM
MDA-MB-435
  GI50: 2480 nM
  TGI: > 100 µM
A549 NSCLC
  GI50: 4.69 µM
  TGI: > 100 µM
HCT-116 colon
  GI50: 500 nM
  TGI: > 100 µM
NCI/ADR-RES ovarian
  GI50: 491 nM
  TGI: > 100 µM
RXF 393 renal
  GI50: 1430 nM
  TGI: 9.75 µM
BT-549 breast
  GI50: 2380 nM
  TGI: > 100 µM
NCI-H522 lung
  GI50: 2110 nM
  TGI: 9.52 µM
SK-MEL-5 melanoma
  GI50: 3.25 µM
  TGI: 11.7 µM
SK-MEL-2 melanoma
  GI50: 3.89 µM
  TGI: > 100 µM
U251 CNS
  GI50: 8.08 µM
  TGI: > 100 µM
COLO 205 colon
  GI50: 2660 nM
  TGI: 9.04 µM
CAKI-1 renal
  GI50: 544 nM
  TGI: > 100 µM
SF-539 CNS
  GI50: 2320 nM
  TGI: > 100 µM
M14 melanoma
  GI50: 503 nM
  TGI: 32.8 µM
MCF7 breast
  GI50: 397 nM
  TGI: > 100 µM
ACHN renal
  GI50: 1990 nM
  TGI: > 100 µM
TK-10 renal
  GI50: 1890 nM
  TGI: > 100 µM
SNB-19 CNS
  GI50: > 100 µM
  TGI: > 100 µM
HL-60(TB) leukemia
  GI50: 2370 nM
  TGI: > 100 µM
OVCAR-8 ovarian
  GI50: 715 nM
  TGI: > 100 µM
SF-295 CNS
  GI50: 378 nM
  TGI: > 100 µM
SF-268 CNS
  GI50: 2110 nM
  TGI: > 100 µM
786-0 renal
  GI50: 2530 nM
  TGI: > 100 µM
KM12 colon
  GI50: 3.02 µM
  TGI: > 100 µM
HCC-2998 colon
  GI50: 3.29 µM
  TGI: > 100 µM
UACC-62 melanoma
  GI50: 539 nM
  TGI: 6.14 µM
RPMI-8226 leukemia
  GI50: 451 nM
  TGI: > 100 µM
DU-145 prostate
  GI50: 577 nM
  TGI: > 100 µM
SK-OV-3 ovarian
  GI50: 471 nM
  TGI: 5.09 µM
EKVX NSCLC
  GI50: 2340 nM
  TGI: > 100 µM
UACC-257 melanoma
  GI50: 4.57 µM
  TGI: > 100 µM
SN12C renal
  GI50: 3.66 µM
  TGI: > 100 µM
HOP-62 NSCLC
  GI50: 447 nM
  TGI: 12.7 µM
NCI-H23 lung
  GI50: 1930 nM
  TGI: > 100 µM
T-47D breast
  GI50: 541 nM
  TGI: > 100 µM

## CC(SC(=S)N1CCOCC1)C(=O)Nc1nnc(-c2ccc(Cl)cc2)o1 (centres undefined)
UO-31 renal
  TGI: > 100 µM
NCI-H226 lung
  TGI: > 100 µM
SR leukemia
  TGI: 40.6 µM
PC-3 prostate
  TGI: > 100 µM
MOLT-4 leukemia
  TGI: > 100 µM
SNB-75 CNS
  TGI: > 100 µM
SK-MEL-28 melanoma
  TGI: > 100 µM
HCT-15 colon
  TGI: > 100 µM
LOX IMVI melanoma
  TGI: > 100 µM
IGROV1 ovarian
  TGI: > 100 µM
OVCAR-5 ovarian
  TGI: > 100 µM
A498 renal
  TGI: > 100 µM
MDA-MB-231 breast
  TGI: > 100 µM
HS 578T breast
  TGI: > 100 µM
HT29 colon
  TGI: > 100 µM
SW-620 colon
  TGI: > 100 µM
MALME-3M melanoma
  TGI: > 100 µM
OVCAR-4 ovarian
  TGI: > 100 µM
OVCAR-3 ovarian
  TGI: > 100 µM
NCI-H460 lung
  TGI: > 100 µM
MDA-MB-435
  TGI: > 100 µM
A549 NSCLC
  TGI: > 100 µM
HCT-116 colon
  TGI: 67.5 µM
NCI/ADR-RES ovarian
  TGI: > 100 µM
RXF 393 renal
  TGI: > 100 µM
BT-549 breast
  TGI: > 100 µM
SK-MEL-5 melanoma
  TGI: > 100 µM
SK-MEL-2 melanoma
  TGI: > 100 µM
U251 CNS
  TGI: > 100 µM
COLO 205 colon
  TGI: > 100 µM
SF-539 CNS
  TGI: > 100 µM
M14 melanoma
  TGI: > 100 µM
MCF7 breast
  TGI: > 100 µM
ACHN renal
  TGI: > 100 µM
TK-10 renal
  TGI: > 100 µM
SNB-19 CNS
  TGI: > 100 µM
OVCAR-8 ovarian
  TGI: > 100 µM
SF-268 CNS
  TGI: > 100 µM
786-0 renal
  TGI: > 100 µM
HCC-2998 colon
  TGI: > 100 µM
HOP-92 NSCLC
  TGI: > 100 µM
UACC-62 melanoma
  TGI: > 100 µM
RPMI-8226 leukemia
  TGI: 66.3 µM
DU-145 prostate
  TGI: > 100 µM
SK-OV-3 ovarian
  TGI: > 100 µM
UACC-257 melanoma
  TGI: > 100 µM
SN12C renal
  TGI: > 100 µM
HOP-62 NSCLC
  TGI: > 100 µM
NCI-H23 lung
  TGI: > 100 µM
T-47D breast
  TGI: > 100 µM

## C=CCON(C(=O)OC(C)(C)C)C(C)(C)C
UO-31 renal
  TGI: > 100 µM
NCI-H226 lung
  TGI: > 100 µM
SR leukemia
  TGI: > 100 µM
PC-3 prostate
  TGI: > 100 µM
MOLT-4 leukemia
  TGI: > 100 µM
SNB-75 CNS
  TGI: > 100 µM
SK-MEL-28 melanoma
  TGI: > 100 µM
HCT-15 colon
  TGI: > 100 µM
K-562 leukemia
  TGI: > 100 µM
LOX IMVI melanoma
  TGI: > 100 µM
IGROV1 ovarian
  TGI: > 100 µM
OVCAR-5 ovarian
  TGI: > 100 µM
A498 renal
  TGI: > 100 µM
CCRF-CEM leukemia
  TGI: > 100 µM
MDA-MB-231 breast
  TGI: > 100 µM
HS 578T breast
  TGI: > 100 µM
HT29 colon
  TGI: > 100 µM
SW-620 colon
  TGI: > 100 µM
MALME-3M melanoma
  TGI: > 100 µM
OVCAR-4 ovarian
  TGI: > 100 µM
OVCAR-3 ovarian
  TGI: > 100 µM
NCI-H460 lung
  TGI: > 100 µM
MDA-MB-435
  TGI: > 100 µM
A549 NSCLC
  TGI: > 100 µM
HCT-116 colon
  TGI: > 100 µM
NCI/ADR-RES ovarian
  TGI: > 100 µM
RXF 393 renal
  TGI: > 100 µM
BT-549 breast
  TGI: > 100 µM
NCI-H522 lung
  TGI: > 100 µM
SK-MEL-5 melanoma
  TGI: > 100 µM
SK-MEL-2 melanoma
  TGI: > 100 µM
U251 CNS
  TGI: > 100 µM
COLO 205 colon
  TGI: > 100 µM
CAKI-1 renal
  TGI: > 100 µM
M14 melanoma
  TGI: > 100 µM
ACHN renal
  TGI: > 100 µM
TK-10 renal
  TGI: > 100 µM
SNB-19 CNS
  TGI: > 100 µM
HL-60(TB) leukemia
  TGI: > 100 µM
OVCAR-8 ovarian
  TGI: > 100 µM
SF-295 CNS
  TGI: > 100 µM
SF-268 CNS
  TGI: > 100 µM
786-0 renal
  TGI: > 100 µM
KM12 colon
  TGI: > 100 µM
HCC-2998 colon
  TGI: > 100 µM
HOP-92 NSCLC
  TGI: > 100 µM
UACC-62 melanoma
  TGI: > 100 µM
RPMI-8226 leukemia
  TGI: > 100 µM
DU-145 prostate
  TGI: > 100 µM
SK-OV-3 ovarian
  TGI: > 100 µM
EKVX NSCLC
  TGI: > 100 µM
UACC-257 melanoma
  TGI: > 100 µM
HOP-62 NSCLC
  TGI: > 100 µM
NCI-H23 lung
  TGI: > 100 µM
T-47D breast
  TGI: > 100 µM
